In paper PMC5930436, “Overexpressed HDAC8 in cervical cancer cells shows functional redundancy of tubulin deacetylation with HDAC6” (Cell Communication and Signaling : CCS, 2018):
Entries after “also recorded” stand apart in the source; their conditions may differ.

Tests used:
HDAC8 [1] = assay: Immunofluorescence / confocal localization of HDAC8 in HeLa and HEK 293 T cells; format: cell-based, human; details: Forskolin (10 μM), 45 min
Procedure: (§1) Human embryonic kidney cells, HEK293T, human cervical carcinoma cells, HeLa, human breast cancer cells, MDA-MB 231, human lung adenocarcinoma cellsA549, chronic myeloid leukemia cells, K562, and human colon cancer cells, HCT11, were obtained from National Centre for Cell Sciences (NCCS), Pune, India. Cell line authentication by STR analysis was performed for 10 genetic loci for all the cell lines by Life code, Genomic technologies Pvt. Ltd., and tested for mycoplasma negative by performing PCR (mycoplasma specific genes) using EZdetect PCR kit for mycoplasma detection (CCK009). All the cells were cultured in high glucose DMEM medium containing 10% foetal bovine serum and 1% Penicillin/streptomycin (Himedia). Cells were seeded in 60 mm dishes and upon attaining 80–90% confluency, treatment was given with PCI-34051(Cayman Chemicals) (10 μM/20 μM) and tubastatin (5 μM) for 24 h or both in combination (PCI-34051 and Tubastatin) and Forskolin (Sigma) (10 μM) for 45 min independently along with untreated control as described earlier.
HeLa and HEK 293 T cells (Control, Forskolin, PCI-34051 (20 μM) treated) were fixed with 4% formaldehyde in PBS for 20 min at RT followed by permeabilization with 0.25% TritonX-100 in PBS. […]

[2] = system: acetylated alpha tubulin, HEK 293 T; assay: Immunoblot of acetylated alpha tubulin in HEK 293 T cells; format: cell-based, human; details: HEK 293 T, Forskolin (10 μM), 45 min, immunoblot normalized with GAPDH
Procedure: as §1
(§2) Total, cytoplasmic and nuclear fractions of HeLa or HEK 293 T cells treated with or without PCI-34051 (20 μM), [12] tubastatin (5 μM) and/or forskolin (10 μM) were prepared as described previously. Total protein samples of HEK 293 T, HeLa, MDAMB 231, K562, A549 and HCT11 cells / immunoprecipitated HDAC8 and HDAC6 samples from both HeLa and HEK 293 T lysates / HDAC8 siRNA transfected HEK 293 T and HeLa lysates were also prepared. The proteins were separated on 10 or 12% SDS-PAGE, transferred on to nitrocellulose membrane and probed with primary antibodies of HDAC8, Beta actin, Alpha tubulin, anti-acetylated alpha tubulin, HDAC6 and GAPDH. The bands were visualized using chemiluminiscence after probing with HRP-conjugated secondary antibody.
(§3) Source for siRNA oligonucleotides were considered from with sequence, HDAC8 Sense: […] and Anti-sense: […]. The oligonucleotides were converted into siRNA by following standard protocol as described earlier. HeLa and HEK 293 T cells were transfected with HDAC8 siRNA (10–15 μg/100 mm dish) using lipofectamine 2000 (Invitrogen), and considering untransfected as control. Cells were harvested after 72 h of post-transfection and processed for total RNA and protein isolation.

[3] = system: acetylated alpha tubulin, HeLa; assay: Immunoblot of acetylated alpha tubulin in HeLa cells; format: cell-based, human; details: Forskolin (10 μM), 45 min, immunoblot normalized with GAPDH
Procedure: as §1, §2, §3

HDAC8 [4] = details: by phosphorylation (PKA); cited from earlier work
Description: The cytoplasmic localization of HDAC8 was further confirmed by immunoblot analysis using total, cytoplasmic and nuclear protein fractions of HEK 293 T and HeLa (Fig. 1d). […] With forskolin treatment, there was significant inc ... || In silico and spectroscopy based results have confirmed the interaction of HDAC8 with alpha tubulin & acetylated alpha tubulin peptide. To further validate the functional interaction we carried out IP and co-IP experiments with HDAC8 and acetylated alpha tubulin (ac-tubulin) antibodies. […] Densitometry results for the fold expression ...

HDAC8 [5] = assay: HDAC8 FLUOR DE LYS fluorometric enzyme activity assay on immunoprecipitated HDAC8 fractions; format: biochemical, human; details: Forskolin (10 μM); for HDAC8 enzyme activity, nuclear fraction: immunoprecipitated nuclear fraction (5 μg), vs untreated
Procedure: HDAC8 enzyme activity assay was performed using HDAC8 FLUOR DE LYS fluorometric assay kit (Cat# BML-AK518–0001) for Control, PCI-34051(10 μM), Forskolin (10 μM), Tubastatin (5 μM) - treated and immunoprecipitated samples of either total, cytoplasmic and nuclear fractions of HeLa and HEK 293 T cells using anti-HDAC8 antibody and anti-HDAC6 (2 μg antibody for ~ 500 μg) according to the manufacturer’s protocol.

HeLa cells [6] = assay: Cell morphology analysis, HeLa; format: cell-based, human; details: HeLa, 20 μM, 24 & 48 h, vs control
Procedure: (§4) HeLa and HEK 293 T cells are cultured in 6 well plates till attaining 70% confluency. Cells are starved for 12 h without serum and treated with PCI-34051 (20 μM) and Paclitaxel (20 μM) along with untreated control for 24 & 48 h. Examined difference in the morphology was captured by Olympus CKX41, ProgRes CT3 phase contrast microscope at 10X focussed lens.

HeLa cells [7] = assay: Cell migration (wound) assay in HeLa cells; format: cell-based, human; details: PCI-34051 (10 μM) or Paclitaxel (10 μM), 24 and 48 h
Procedure: HeLa cells are grown in 6 well plates in duplicates till it attains 90% confluency and starved with serum free media for overnight. Using a sterile 200 μl tip wound is created by drawing straight lines at three different points in each well. Detached cells are aspirated and washed three times with 1XPBS. Cells are treated with PCI-34051 (10 μM & 20 μM) and Paclitaxel (10 μM & 20 μM) dissolved in 2% FBS respectively along with control (untreated). Migrated cells into the wound were examined by capturing images using Olympus CKX41, ProgRes CT3 phase contrast microscope after 24 and 48 h.

tubulin polymerization = details: cited from earlier work
Description: Tubulins are one of the major cytoskeletal proteins and consists of alpha, beta and gamma tubulin proteins in the family. Acetylated alpha tubulin is known to stabilize microtubules and effect intracellular transport, cell migration and primary determinant for cell morphology. HDAC8 inhibition impedes the migration property in HeLa in turn affecting the morphology.

HEK 293 T cells = assay: Cell morphology analysis, HEK 293 T; format: cell-based, human; details: 20 μM, 24 & 48 h, vs control
Procedure: as §4

What does the source list for `C=C[C@@]1(C)CC(=O)[C@]2(O)[C@@]3(C)[C@@H](O)CCC(C)(C)[C@@H]3[C@H](O)[C@H](OC(C)=O)[C@@]2(C)O1` [Forskolin]?
localization of HDAC8 (HDAC8 [1]): no difference in localization of HDAC8; levels of acetylated alpha tubulin [2]: ac-alpha tubulin levels increase; levels of acetylated alpha tubulin ([2]; listed as forskolin): increased significantly; levels of acetylated alpha tubulin [3]: ac-alpha tubulin levels increase; levels of acetylated alpha tubulin ([3]; listed as forskolin): increased significantly; also recorded: significant increase of acetylated tubulin expression; effect on HDAC8 (HDAC8 [4]): known to inactivate HDAC8 by phosphorylation; cytoplasmic HDAC8 activity (HDAC8 [5]; HeLa and HEK 293 T, cytoplasmic fraction (5 μg)): decreased; nuclear HDAC8 enzyme activity (discussion statement) (HDAC8 [5]; HeLa and HEK 293 T, nuclear fraction (5 μg)): increased; HDAC8 enzyme activity, nuclear fraction (HDAC8 [5]; HEK 293 T): significant increase in the nuclear fraction; HDAC8 enzyme activity, nuclear fraction (HDAC8 [5]; HeLa): significant increase in the nuclear fraction

Which “cell morphology (cell size)” value (HeLa cells [6]) does the source give for `CC(=O)O[C@H]1C(=O)[C@@]2(C)[C@H]([C@H](OC(=O)c3ccccc3)[C@]3(O)C[C@H](OC(=O)[C@H](O)[C@@H](NC(=O)c4ccccc4)c4ccccc4)C(C)=C1C3(C)C)[C@]1(OC(C)=O)CO[C@@H]1C[C@@H]2O` [Paclitaxel] here?
The value was “reduced (shrinking) cell size; also recorded: decreased cell size (shrinking)”.

What about the “migration efficiency (rank order)” value (HeLa cells [7]) of the same compound?
Its value is “Control> > Paclitaxel>PCI-34051”.

And the “consequence of inhibition of tubulin polymerization” value (tubulin polymerization)?
Its value is “cell-cycle arrest and cell death”.

What about the “cell morphology (aggregation / clump formation)” value (HEK 293 T cells) of the same compound?
Its value is “clump formation; also recorded: cell aggregation”.
